# Source: patent EP4768499A1, “MACROCYCLIC PEPTIDE COMPOUND HAVING CELL MEMBRANE PERMEABILITY AND METABOLIC STABILITY, AND LIBRARY CONTAINING SAME” (Chugai Seiyaku Kabushiki Kaisha, priority 2023, dated 2025)
# Starred links: 1 amine or outer side, 2 acyl side, 3 side chain; linkers in the order of their positions; H or OH if unused. Positions of bridges follow the written chain, without caps; N, C: chain ends. Non-standard residues stand in square brackets, D forms with d. Residues, ends and D or L forms follow the SMILES beside them. *: point of attachment. NMeF = CN[C@@H](Cc1ccccc1)C(=O)O; NMeGABA = CN(CCCC(=O)[*:2])[*:1]; NMeI = CC[C@H](C)[C@H](NC)C(=O)O; NMeT = CN[C@H](C(=O)O)[C@@H](C)O; hPhe = N[C@@H](CCc1ccccc1)C(=O)O; NMeβAla = CN(CCC(=O)[*:2])[*:1]; NMeL = CN[C@@H](CC(C)C)C(=O)O; NMeV = CN[C@H](C(=O)O)C(C)C; d(β3hA) = C[C@@H](N)CC(=O)O; NMeAbu = CC[C@H](NC)C(=O)O; NMeA = CN[C@@H](C)C(=O)O; Piperidide = C1CCN(*)CC1; Abu = CC[C@H](N)C(=O)O; Sar = CNCC(=O)O; tBu = CC(C)(C)*
# Assays:
# [1] = Metabolic stability test: liver microsomal stability assay; format: in vitro ADME, mouse; conditions: mouse liver microsomes 0.5 mg protein/mL, compound 1 µM; for microsomal CLint at 1 µM: male, pH 7.4, presence of NADPH, read-out: Mouse Hepatic Microsome CLh,int NADPH(+); for Mouse Hepatic Microsome CLh,int NADPH(-): absence of NADPH
# [2] = Membrane permeability test using Caco-2 cells with preincubation; format: in vitro ADME; conditions: Caco-2; preincubation 20 to 24 hours; Apical FaSSIF/HBSS pH 6.0, Basal HBSS 4% BSA pH 7.4; 180 minutes; read-out: Caco2 Papp
# Caco-2 cells = experiment: as above; format: in vitro ADME; conditions: Caco-2 cells, preincubation 20 to 24 hours; apical FaSSIF/HBSS 1% DMSO pH 6.0, basal HBSS 4% BSA pH 7.4; basal sample at 180 minutes
SMILES,microsomal CLint at 1 µM [1],"Mouse Hepatic Microsome CLh,int NADPH(-) [1]",Papp A→B [2],Caco2 Papp (10^-6 cm/sec) (Caco-2 cells)
CC[C@@H]1NC(=O)[C@H]([C@@H](C)O)N(C)C(=O)CCN(C)C(=O)[C@H]([C@@H](C)CC)NC(=O)[C@H](Cc2ccccc2)N(C)C(=O)CN(C)C(=O)C[C@@H](C(=O)N2CCCCC2)NC(=O)[C@H]([C@@H](C)CC)N(C)C(=O)[C@H](COC(C)(C)C)NC(=O)[C@@H]2CCCN2C(=O)[C@H](CCc2ccccc2)NC(=O)[C@H](CC)N(C)C(=O)[C@H](C)NC(=O)[C@H](CC(C)C)N(C)C1=O [pd038] ([Sar][NMeF]I[NMeβAla][NMeT][Abu][NMeL]A[NMeAbu][hPhe]PS(tBu)[NMeI]D-Piperidide; lactam N-14),12 µL/min/mg,18.1 µL/min/mg Protein,0.04 ×10⁻⁶ cm/s,0.04 10^-6 cm/sec
CC[C@H](C)[C@@H]1NC(=O)[C@H](CC(C)C)N(C)C(=O)CN(C)C(=O)C[C@@H](C(=O)N2CCCCC2)NC(=O)[C@H](C)N(C)C(=O)CNC(=O)[C@H](C(C)C)N(C)C(=O)[C@H](C)N(C)C(=O)[C@H](Cc2ccccc2)N(C)C(=O)[C@H](C(C)C)NC(=O)[C@H](CC(C)C)NC(=O)[C@H](Cc2ccccc2)N(C)C(=O)[C@H]([C@@H](C)O)NC(=O)[C@H](CC(C)C)N(C)C1=O [pd039] ([Sar][NMeL]I[NMeL]T[NMeF]LV[NMeF][NMeA][NMeV]G[NMeA]D-Piperidide; lactam N-14),21.4 µL/min/mg,15.6 µL/min/mg Protein,0.03 ×10⁻⁶ cm/s,0.03 10^-6 cm/sec
CC(C)C[C@@H]1NC(=O)[C@H]([C@@H](C)O)N(C)C(=O)[C@@H](C(C)C)NC(=O)C[C@@H](C(=O)N2CCCCC2)NC(=O)[C@H](C(C)C)N(C)C(=O)[C@H](C)N(C)C(=O)[C@H](C(C)C)NC(=O)[C@H](Cc2ccccc2)N(C)C(=O)[C@@H]2CCCN2C(=O)[C@H](CC(C)C)N(C)C(=O)CN(C)C(=O)[C@H](CCc2ccccc2)NC(=O)[C@H](CC(C)C)N(C)C(=O)[C@H](C(C)C)N(C)C1=O [pd040] ([dV][NMeT]L[NMeV][NMeL][hPhe][Sar][NMeL]P[NMeF]V[NMeA][NMeV]D-Piperidide; lactam N-14),24.8 µL/min/mg,22.3 µL/min/mg Protein,0.17 ×10⁻⁶ cm/s,0.17 10^-6 cm/sec
CC[C@H](C)[C@@H]1NC(=O)[C@H](C)N(C)C(=O)[C@H]([C@@H](C)O)NC(=O)[C@H](CC(C)C)N(C)C(=O)[C@H](CC)N(C)C(=O)[C@H](Cc2ccccc2)N(C)C(=O)[C@H](C)NC(=O)[C@H](Cc2ccccc2)N(C)C(=O)[C@H](C)N(C)C(=O)[C@H](CC(C)C)N(C)C(=O)[C@H](CC(C)C)NC(=O)CCCN(C)C(=O)C[C@@H](C(=O)N2CCCCC2)NC(=O)[C@H](CC(C)C)N(C)C1=O [pd041] ([NMeGABA]L[NMeL][NMeA][NMeF]A[NMeF][NMeAbu][NMeL]T[NMeA]I[NMeL]D-Piperidide; lactam N-14),25.1 µL/min/mg,23.5 µL/min/mg Protein,0.13 ×10⁻⁶ cm/s,0.13 10^-6 cm/sec
CC[C@H](C)[C@H]1C(=O)N[C@@H](Cc2ccccc2)C(=O)N2CCC[C@H]2C(=O)N(C)[C@@H](CC(C)C)C(=O)N[C@@H](COC(C)(C)C)C(=O)N(C)[C@@H](Cc2ccccc2)C(=O)N[C@@H]([C@@H](C)O)C(=O)N(C)[C@@H](CC)C(=O)N2CCC[C@H]2C(=O)N(C)[C@@H](CC(C)C)C(=O)N[C@@H](C(C)C)C(=O)N[C@H](C(=O)N2CCCCC2)CC(=O)N(C)CCCC(=O)N(C)[C@@H](CC(C)C)C(=O)N1C [pd042] ([NMeGABA][NMeL][NMeI]FP[NMeL]S(tBu)[NMeF]T[NMeAbu]P[NMeL]VD-Piperidide; lactam N-14),32.3 µL/min/mg,18.1 µL/min/mg Protein,0.59 ×10⁻⁶ cm/s,0.59 10^-6 cm/sec
CC[C@H](C)[C@@H]1NC(=O)[C@@H]2CCCN2C(=O)[C@H](CC(C)C)N(C)C(=O)[C@H](CC(C)C)NC(=O)[C@H]([C@@H](C)CC)N(C)C(=O)[C@H]([C@@H](C)O)NC(=O)[C@H](Cc2ccccc2)N(C)C(=O)[C@H](CC)N(C)C(=O)[C@H](Cc2ccccc2)N(C)C(=O)[C@H](C(C)C)NC(=O)[C@H](CC(C)C)N(C)C(=O)[C@H](C)N(C)C(=O)C[C@@H](C(=O)N2CCCCC2)NC(=O)[C@H](C(C)C)N(C)C1=O [pd043] ([NMeA][NMeL]V[NMeF][NMeAbu][NMeF]T[NMeI]L[NMeL]PI[NMeV]D-Piperidide; lactam N-14),40.7 µL/min/mg,34.8 µL/min/mg Protein,0.16 ×10⁻⁶ cm/s,0.16 10^-6 cm/sec
CC[C@H](C)[C@H]1C(=O)N[C@@H]([C@@H](C)O)C(=O)N(C)CC(=O)N(C)[C@@H](CC(C)C)C(=O)N(C)[C@@H](Cc2ccccc2)C(=O)N[C@H](C(=O)N2CCCCC2)CC(=O)N(C)[C@@H](C)C(=O)N[C@@H](CC(C)C)C(=O)N(C)[C@@H](Cc2ccccc2)C(=O)N(C)[C@@H](C)C(=O)N(C)[C@@H](CC(C)C)C(=O)N[C@@H](COC(C)(C)C)C(=O)N(C)[C@@H](C)C(=O)N[C@@H](CC(C)C)C(=O)N1C [pd044] ([NMeA]L[NMeF][NMeA][NMeL]S(tBu)[NMeA]L[NMeI]T[Sar][NMeL][NMeF]D-Piperidide; lactam N-14),54.3 µL/min/mg,33.1 µL/min/mg Protein,0.83 ×10⁻⁶ cm/s,0.83 10^-6 cm/sec
CC[C@H](C)[C@@H]1NC(=O)[C@H](C)N(C)C(=O)C[C@@H](C(=O)N2CCCCC2)NC(=O)[C@H](CC)N(C)C(=O)[C@H](COC(C)(C)C)NC(=O)[C@H](CC(C)C)N(C)C(=O)[C@H](C)N(C)C(=O)[C@H](CC(C)C)N(C)C(=O)[C@H](Cc2ccccc2)N(C)C(=O)CN(C)C(=O)[C@H]([C@@H](C)O)NC(=O)[C@H](CC(C)C)N(C)C(=O)[C@H](C(C)C)NC(=O)[C@H](Cc2ccccc2)N(C)C1=O [pd045] ([NMeA]I[NMeF]V[NMeL]T[Sar][NMeF][NMeL][NMeA][NMeL]S(tBu)[NMeAbu]D-Piperidide; lactam N-14),43.9 µL/min/mg,26.4 µL/min/mg Protein,0.32 ×10⁻⁶ cm/s,0.32 10^-6 cm/sec
CC[C@@H]1NC(=O)[C@H](C)N(C)C(=O)[C@H](CC(C)C)N(C)C(=O)[C@H]([C@@H](C)O)N(C)C(=O)[C@H](CC(C)C)N(C)C(=O)[C@H](C)NC(=O)[C@H](Cc2ccccc2)N(C)C(=O)CN(C)C(=O)C[C@@H](C(=O)N2CCCCC2)NC(=O)[C@H](C(C)C)N(C)C(=O)[C@H](C)NC(=O)[C@@H]2CCCN2C(=O)[C@H](C(C)C)NC(=O)[C@H](Cc2ccccc2)N(C)C1=O [pd046] ([Sar][NMeF]A[NMeL][NMeT][NMeL][NMeA][Abu][NMeF]VPA[NMeV]D-Piperidide; lactam N-14),6.2 µL/min/mg,5.4 µL/min/mg Protein,0.06 ×10⁻⁶ cm/s,0.06 10^-6 cm/sec
CC(C)C[C@H]1C(=O)N2CCC[C@H]2C(=O)N(C)[C@@H](Cc2ccccc2)C(=O)N[C@@H](C(C)C)C(=O)N(C)[C@@H](C)C(=O)N(C)[C@@H](C(C)C)C(=O)N[C@H](C(=O)N2CCCCC2)CC(=O)N[C@H](C(C)C)C(=O)N(C)[C@@H]([C@@H](C)O)C(=O)N(C)[C@@H](CC(C)C)C(=O)N(C)[C@@H](C(C)C)C(=O)N(C)[C@@H](CC(C)C)C(=O)N[C@@H](CCc2ccccc2)C(=O)N(C)CC(=O)N1C [pd047] ([dV][NMeT][NMeL][NMeV][NMeL][hPhe][Sar][NMeL]P[NMeF]V[NMeA][NMeV]D-Piperidide; lactam N-14),41.4 µL/min/mg,30.0 µL/min/mg Protein,0.16 ×10⁻⁶ cm/s,0.16 10^-6 cm/sec
CC[C@H](C)[C@H]1C(=O)N(C)[C@@H](CC(C)C)C(=O)N[C@H](C(=O)N2CCCCC2)CC(=O)N(C)CCCC(=O)N[C@@H](CC(C)C)C(=O)N(C)[C@@H](CC(C)C)C(=O)N(C)[C@@H](C)C(=O)N(C)[C@@H](Cc2ccccc2)C(=O)N[C@@H](C)C(=O)N(C)[C@@H](Cc2ccccc2)C(=O)N(C)[C@@H](CC)C(=O)N(C)[C@@H](CC(C)C)C(=O)N[C@@H]([C@@H](C)O)C(=O)N(C)[C@@H](C)C(=O)N1C [pd048] ([NMeGABA]L[NMeL][NMeA][NMeF]A[NMeF][NMeAbu][NMeL]T[NMeA][NMeI][NMeL]D-Piperidide; lactam N-14),30.2 µL/min/mg,20.7 µL/min/mg Protein,0.28 ×10⁻⁶ cm/s,0.28 10^-6 cm/sec
CC[C@H]1C(=O)N(C)[C@@H](C)C(=O)N[C@@H](CC(C)C)C(=O)N(C)[C@@H](C(C)C)C(=O)N[C@H](C)CC(=O)N[C@H](C(C)C)C(=O)N(C)[C@@H](CC(C)C)C(=O)N[C@@H](CC(C)C)C(=O)N(C)[C@@H](C(C)C)C(=O)N(C)[C@@H](CC(C)C)C(=O)N(C)CC(=O)N[C@@H]([C@@H](C)O)C(=O)N(C)[C@@H](Cc2ccccc2)C(=O)N[C@@H](COC(C)(C)C)C(=O)N1C [pd049] (cyclo(L[NMeV][NMeL][Sar]T[NMeF]S(tBu)[NMeAbu][NMeA]L[NMeV][d(β3hA)][dV][NMeL])),30.6 µL/min/mg,29.1 µL/min/mg Protein,0.32 ×10⁻⁶ cm/s,0.32 10^-6 cm/sec
